How the values were obtained:
Experiment in all cases: relative viability (nuclei count vs DMSO), 5 days (fraction); higher = more cells survive
Cediranib + Dasatinib = compound: COc1cc2c(Oc3ccc4[nH]c(C)cc4c3F)ncnc2cc1OCCCN1CCCC1 [Cediranib] + Cc1nc(Nc2ncc(C(=O)Nc3c(C)cccc3Cl)s2)cc(N2CCN(CCO)CC2)n1 [Dasatinib] (partner 0.075 µM)
How it was run: (§1)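 Medians of duplicate plates are given as relative viability. That measure is the nuclei count in treated wells divided by the count in vehicle wells. Counts were taken on 4× images of lung cancer cell lines in 1536-well plates, 5 days after pin-tool dosing the day after seeding with one drug alone or a fixed anchor-drug dose plus five library-drug doses (not always all listed) in √10 steps.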

Decitabine + Palbociclib = compound: Nc1ncn([C@H]2C[C@H](O)[C@@H](CO)O2)c(=O)n1 [Decitabine] + CC(=O)c1c(C)c2cnc(Nc3ccc(N4CCNCC4)cn3)nc2n(C2CCCC2)c1=O [Palbociclib] (partner 0.5 µM)
How it was run: as §1

[1] = compound: O=C(C[C@H]1NCCC[C@@H]1O)Cn1cnc2cc(Br)c(Cl)cc2c1=O (racemic) [Halofuginone] + CC(=O)c1c(C)c2cnc(Nc3ccc(N4CCNCC4)cn3)nc2n(C2CCCC2)c1=O [Palbociclib] (partner 0.5 µM)
How it was run: as §1

[2] = compound: O=C(C[C@H]1NCCC[C@@H]1O)Cn1cnc2cc(Br)c(Cl)cc2c1=O (racemic) [Halofuginone] + C[C@@H](Oc1cc(-c2cnn(C3CCNCC3)c2)cnc1N)c1c(Cl)ccc(F)c1Cl [Crizotinib] (partner 1 µM)
How it was run: as §1

Cell Line	relative viability (Cediranib + Dasatinib; first compound 0.04 µM)	relative viability (Cediranib + Dasatinib; first compound 0.1265 µM)	relative viability (Cediranib + Dasatinib; first compound 0.4 µM)	relative viability (Cediranib + Dasatinib; first compound 1.265 µM)	relative viability (Cediranib + Dasatinib; first compound 4 µM)	relative viability (Decitabine + Palbociclib; first compound 0.04 µM)	relative viability (Decitabine + Palbociclib; first compound 0.1265 µM)	relative viability (Decitabine + Palbociclib; first compound 0.4 µM)	relative viability (Decitabine + Palbociclib; first compound 1.265 µM)	relative viability (Decitabine + Palbociclib; first compound 4 µM)	relative viability ([1]; first compound 0.001 µM)	relative viability ([1]; first compound 0.003162 µM)	relative viability ([1]; first compound 0.01 µM)	relative viability ([1]; first compound 0.03162 µM)	relative viability ([1]; first compound 0.1 µM)	relative viability ([2]; first compound 0.001 µM)	relative viability ([2]; first compound 0.003162 µM)	relative viability ([2]; first compound 0.01 µM)	relative viability ([2]; first compound 0.03162 µM)	relative viability ([2]; first compound 0.1 µM)
NCI-H1734	0.463	0.647	0.479	0.364	0.518	0.331	0.338	0.32	0.284	0.236	0.338	0.361	0.33	0.32	0.2	0.738	0.718	0.67	0.659	0.277
NCI-H650	0.434	0.458	0.434	0.453	0.482	0.268	0.243	0.198	0.191	0.182	0.362	0.337	0.302	0.294	0.305	0.77	0.714	0.73	0.604	0.344
NCI-H1915	0.279	0.305	0.305	0.324	0.345	0.328	0.209	0.22	0.194	0.192	0.571	0.514	0.523	0.472	0.422	0.897	0.954	0.813	0.894	0.73
NCI-H2009	0.311	0.523	0.301	0.297	0.309	0.43	0.231	0.116	0.193	0.275	0.349	0.252	0.218	0.201	0.157	1.15	1.09	1.06	0.923	0.668
NCI-H1651	0.53	0.46	0.432	0.385	0.343	0.522	0.508	0.515	0.389	0.403	0.523	0.515	0.51	0.513	0.509	0.922	0.899	0.88	0.848	0.798
HOP-62	0.698	0.909	0.577	0.617	0.77	0.326	0.327	0.195	0.136	0.273	0.435	0.427	0.426	0.375	0.227	0.905	0.958	0.971	0.972	0.676
CAL-12T	0.438	0.285	0.504	0.489	0.364	0.279	0.431	0.25	0.28	0.288	0.332	0.433	0.406	0.392	0.194	0.733	0.835	0.527	0.834	0.237
